Test results: patent US8287887B2, “Antigen-and-drug vehicle comprising synthetic peptide, and mucosal vaccine using the same” (priority 2008, dated 2012)

How the values were obtained:
[1] = test system: influenza virus A strain New Calcdonia (H1N1); set-up: species or system Clawn minipigs; details: minipig, in vivo
[2] = test system: influenza A virus strain Aichi/68/2/H3N2; assay: Nasal vaccination of mice; anti-influenza IgA and IgG in nasal cavity lavage fluids and blood serum by ELISA; type: in vivo, BALB/c mice; details: compared with HA vaccine alone or with other AD vehicles

| Sequence | Effectiveness of AD vehicle in inducing antibody titers, in words [1] | Antibody-production-enhancing effect (IgA and/or IgG), in words [2] |
| --- | --- | --- |
| PVHLKRLLLLLLLLLLL [SP-CL11] | effective |  |
| PVHLRKLLLLLLLLLLLLLLLL (PVHLKRLLLLLLLLLLLLLLLL) [RK-SP-CL, comparison peptide; KR of the 5th-6th positions of SP-CL11 reversed to RK, more L residues] |  | not much involved in the antibody production |
| KKKKKKLLLLLLLLLLLLLLLL [K6L16, six K residues on the N-terminal side and 16 L residues on the C-terminal side] | effective |  |
